These results are taken from patent US20110124745A1, “Switchable Anionic Surfactants and Methods of Making and Using Same” (priority 2009, published 2011).

The nature of data set [1]: Soil washing: amount of oil removed from contaminated sand. As for the experimental part: Oil-contaminated soil was prepared in the following manner. North Sea crude oil (2.4 to 2.6 g) (Chevron, San Ramon, Calif., USA) was poured into a beaker. Tetrahydrofuran (THF) (to dissolution, approximately 50 mL) was added and the beaker and its contents were swirled to dissolve the oil. Ottawa sand (60 g) (EMD Chemicals, Gibbstown N.J., USA) was poured into the beaker and the contents of the beaker was swirled again. The beaker was left uncovered overnight at room temperature to allow the THF to evaporate. Then, the sand was broken up and mixed in the beaker. The beaker was left uncovered for a further time period so that total elapsed time for evaporation was 24 hours. The contaminated sand was then poured into a pre-weighed petrie dish, which was then placed into an oven at 110° C. and heated for 24 hours. After the petrie dish was removed from the oven and had cooled to room temperature, the sample and dish were weighed together. The contaminated sand was then transferred to a 100 mL amber vial for storage. This heat treatment was intended to simulate weathering of the contaminated soil. This procedure provided a sample of soil with 3.0 wt % oil contamination.
A 0.5 wt % surfactant solution was prepared in the following manner: surfactant (0.25 g) was added to a 50 mL volumetric flask. Deionized water at room temperature was added to achieve a total mass of 50 g. Sonication of the solution assisted with dissolving the surfactant.
A 0.5 wt % surfactant solution was prepared in the following manner: Deionized water was heated to 50° C. Surfactant (0.25 g) was added to a 50 mL volumetric flask. The heated water was added to achieve a total mass of 50 g. Swirling and shaking of the flask was sufficient to dissolve the surfactant.
A 0.1 wt % surfactant solution was also prepared using the above-described procedure wherein 0.0583 g of surfactant was used.
The contaminated sand of Example 7A was washed in the following manner. Three 20 mL vials were labelled and their empty masses were, recorded. Contaminated sand (5.1 g) was added to each vial and the vial's new masses were recorded. The surfactant solution was added to each vial using a syringe to achieve 10 g of solution. A stir bar was also added. The vials were capped with TEFLON®-lined lids and shaken manually for 20 seconds. The vials were placed in a beaker, to keep them upright. The beaker was placed on a stir plate and the vials were stirred at 470 rpm for 1 hour. Each vial was then manually shaken for 20 seconds. Then the stirring was continued for a second hour. The liquid portion of the samples was poured into separate 20 mL vials and is referred to below as “first decant solution”. The original vials (and their remaining contents) were each rinsed with 50 mL of deionized water and that rinse water was then added to 50 mL Wheaton jars and is referred to below as “wash solution”.
Sand washing was also carried out at elevated temperature by following the procedure as described in Example 7D with the difference that vials were placed into a 50° C. water bath. The water bath was placed on a stirring hot plate and was maintained 50° C. and the vials were stirred at 470 rpm for 1 hour. Each vial was then manually shaken for 20 seconds. Then the stirring was continued for a second hour. The liquid portion of the samples was poured into separate 20 mL vials and is referred to below as “first decant solution”. The original vials were each rinsed with 50 mL of deionized water and that rinse water was then added to 50 mL Wheaton jars and is referred to below as “wash solution”.
Oil remaining on the soil of Examples 7A-E was quantified in the following manner. An extraction was performed using 10 mL of a 1:1 dichloromethane:hexanes liquid mixture. This mixture was added to vials housing washed sand (the term “washed sand” refers to 5.1 g of contaminated sand from Example 7A that has been washed and rinsed using the procedures of Example 7D or 7E). […]

Data set [2] in a line: Switchability using DMSO-d6 (CO2 bubbling, 1H NMR). Format: physicochemical. Particulars: 0.01 M solution in DMSO-d6, non-aqueous. From the text:
(§1) Since n-octyl 4-hydroxy-3-nitrobenzoate (1N) and the […] salt of (1A) are soluble in DMSO and have some characteristic signals in the ^1H NMR spectrum, […] was used as a solvent to monitor the non-aqueous switchability by NMR spectroscopy.

Data set [3] can be described thus: Solubility observations (aqueous solution, DMSO). Format: physicochemical. Particulars: DMSO.
From the text: The following study confirmed that compounds (1A) and (1N) reversibly convert from the neutral form (1N) to the anionic form (1A) and back to the neutral form over and over again with substantially no loss of product. The conversion was verified visually since the neutral form was not soluble in aqueous solution and appeared as a white precipitate in colourless liquid while the anionic form was fully soluble in aqueous solution and appeared as a clear yellow liquid (see FIG. 2). In addition to visual examination, ^1H NMR studies that are described below confirmed the presence of the hydroxyl proton in the spectra of the neutral form.
as §1

[4] abbreviates: 50° C. Washing, 0.5 wt % surfactant solution.
Where [5] appears, read: Room Temperature Washing, 0.5 wt % surfactant solution.

Regarding `CCCCCCCCCCCCOS(=O)(=O)[O-].[Na+]` [Sodium Dodecyl Sulfate (SDS), Sodium Dodecyl Sulfate], the “Amount of oil removed from sand” value turned out to be 86% in data set [1] (setting [4]); 40% in data set [1] (Room Temperature Washing, 0.5 wt % surfactant solution, Sulfate); 40% in data set [1] (Room Temperature Washing, 0.5 wt % surfactant solution, listed as sodium dodecyl sulfate (SDS), Sulfate).

`CCCCCCCCOC(=O)c1ccc(O)c([N+](=O)[O-])c1.[Na]` [Sodium octyl 4-hydroxy-3-nitrobenzoate]: the “Amount of oil removed from sand” value is on record as 94% in data set [1] (50° C. Washing, 0.1 wt % surfactant solution); 94-97% in data set [1] (setting [4]); 82% in data set [1] (setting [5]).

Take Triton X-100: the “Amount of oil removed from sand” value in data set [1] (setting [4]) worked out at 94%; in data set [1] (setting [5]), 68%.

With “potassium 4-hydroxy-3-nitrobenzoate [potassium salt of (1A)]”, in data set [2], the “conversion on CO2 bubbling by 1H NMR” value is given as “no conversion was apparent”. Moreover, in data set [3], the “solubility in DMSO” value was “soluble”.
